In the experiment the target is T1, PI3Kα H1047R (T47D cells) (Homo sapiens, UniProt P42336, H1047R).
T1 construct: endogenous in cells; host or cells: T47D cells
Briefly: PI3Kα cellular assay: pAKT HTRF in T47D cells after EGF stimulation. The note with it: for IC50: T47D cells (PI3Kα H1047R), pAKT S473 HTRF, 1 hr compound, 20 ng/ml EGF 10 min. In kind it is cell-based. The procedure, abridged: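 T47D cells (PIK3CA H1047R) serum-starved 16 h, then treated 1 h at 37 °C with compound (10,000 nM top, 3-fold steps to 0.5 nM). After 10 min stimulation with 20 ng/mL EGF, cells were lysed and pAKT measured by HTRF.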

[1] abbreviates: selectivity T47D (H1047R) over SKBR3 (WT), pAKT HTRF.

Some results are limits rather than exact numbers.

This note sets out measurements from patent US20260132129A1 (Genesis Therapeutics, Inc., priority 2022, published 2026).

Broadly, the IC50 is the concentration needed to halve the response being measured. High values mean lower potency, low ones higher potency.

T1 sequence (P42336 whole entry H1047R): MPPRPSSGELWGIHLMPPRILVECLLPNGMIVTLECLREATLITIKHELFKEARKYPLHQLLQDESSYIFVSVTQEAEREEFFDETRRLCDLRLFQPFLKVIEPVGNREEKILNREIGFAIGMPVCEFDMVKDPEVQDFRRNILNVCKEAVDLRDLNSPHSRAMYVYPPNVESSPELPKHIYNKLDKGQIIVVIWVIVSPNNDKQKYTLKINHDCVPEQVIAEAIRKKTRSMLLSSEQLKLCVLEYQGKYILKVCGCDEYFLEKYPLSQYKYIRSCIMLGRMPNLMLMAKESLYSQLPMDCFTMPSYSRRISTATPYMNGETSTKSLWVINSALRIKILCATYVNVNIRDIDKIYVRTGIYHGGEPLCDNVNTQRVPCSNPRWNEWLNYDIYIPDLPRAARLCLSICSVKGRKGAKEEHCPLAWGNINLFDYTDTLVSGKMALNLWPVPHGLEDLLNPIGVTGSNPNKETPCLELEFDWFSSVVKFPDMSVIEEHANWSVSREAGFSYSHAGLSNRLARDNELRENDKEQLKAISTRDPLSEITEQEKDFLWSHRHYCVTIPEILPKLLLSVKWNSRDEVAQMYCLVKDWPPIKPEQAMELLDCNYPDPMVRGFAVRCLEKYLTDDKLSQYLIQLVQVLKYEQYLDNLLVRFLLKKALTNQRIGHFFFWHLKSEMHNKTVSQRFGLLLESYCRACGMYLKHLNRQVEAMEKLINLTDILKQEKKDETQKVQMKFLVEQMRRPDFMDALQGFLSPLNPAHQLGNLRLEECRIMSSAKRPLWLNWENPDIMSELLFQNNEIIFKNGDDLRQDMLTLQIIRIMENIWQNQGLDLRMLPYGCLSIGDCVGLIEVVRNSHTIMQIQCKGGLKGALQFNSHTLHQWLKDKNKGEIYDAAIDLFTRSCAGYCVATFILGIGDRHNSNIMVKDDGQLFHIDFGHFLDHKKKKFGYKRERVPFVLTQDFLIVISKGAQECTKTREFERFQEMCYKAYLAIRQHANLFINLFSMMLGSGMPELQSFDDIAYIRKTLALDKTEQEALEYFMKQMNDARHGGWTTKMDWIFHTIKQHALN
T1 sequence (P27986 whole entry partner): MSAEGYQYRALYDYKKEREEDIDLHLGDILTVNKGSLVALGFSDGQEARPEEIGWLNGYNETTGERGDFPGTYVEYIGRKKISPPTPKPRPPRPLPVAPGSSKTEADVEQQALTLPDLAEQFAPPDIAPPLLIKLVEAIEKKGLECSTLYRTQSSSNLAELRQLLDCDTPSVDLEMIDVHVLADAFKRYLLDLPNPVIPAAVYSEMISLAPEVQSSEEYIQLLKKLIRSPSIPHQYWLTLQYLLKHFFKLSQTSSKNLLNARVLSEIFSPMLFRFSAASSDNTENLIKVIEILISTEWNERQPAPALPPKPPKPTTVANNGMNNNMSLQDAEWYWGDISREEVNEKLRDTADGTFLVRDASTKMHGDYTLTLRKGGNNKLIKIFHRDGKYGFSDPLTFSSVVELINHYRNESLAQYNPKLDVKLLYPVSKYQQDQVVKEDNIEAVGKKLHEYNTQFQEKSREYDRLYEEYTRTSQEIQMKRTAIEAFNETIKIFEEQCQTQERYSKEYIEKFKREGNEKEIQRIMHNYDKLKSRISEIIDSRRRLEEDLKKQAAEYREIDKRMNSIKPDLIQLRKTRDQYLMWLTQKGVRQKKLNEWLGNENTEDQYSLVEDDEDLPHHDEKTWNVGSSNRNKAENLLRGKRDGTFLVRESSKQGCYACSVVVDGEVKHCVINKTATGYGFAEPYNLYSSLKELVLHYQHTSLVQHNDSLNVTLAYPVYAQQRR

As to `Cc1cc(C(C)Nc2ccccc2C(=O)O)c2nc(N3CCN(C(=O)CN)CC3)cc(=O)n2c1` (stereo not shown) [Compound 527], the IC50 was > 2000 nM. The “T47D pAKT S473 HTRF IC50 (H1047R): T47D (H1047R) selectivity over SKBR3 (WT)” value under setting [1] is recorded as “C (C denotes ≤5-fold)”.
For `Cc1cc([C@H](C)Nc2ccccc2C(=O)O)c2nc(N3CCN(C(=O)CN)CC3)cc(=O)n2c1` [Compound 528] the same measures were > 2000 nM and “C (C denotes ≤5-fold)”.
For `Cc1cc(C(C)Nc2ccccc2C(=O)O)c2nc(N3CCN(C(=O)CCN)CC3)cc(=O)n2c1` (stereo not shown) [Compound 529], in that order: > 2000 nM and “C (C denotes ≤5-fold)”.
For `Cc1cc(C(C)Nc2ccccc2C(=O)O)c2nc(N3CCN(CCC(N)=O)CC3)cc(=O)n2c1` (stereo not shown) [Compound 530] the same measures were > 2000 nM and “C (C denotes ≤5-fold)”.
`Cc1cc([C@@H](C)Nc2ccccc2C(=O)O)c2nc([C@H]3CCOC3)cc(=O)n2c1` [Compound 537]: the IC50 was 500 to 2000 nM. Also, the “T47D pAKT S473 HTRF IC50 (H1047R): T47D (H1047R) selectivity over SKBR3 (WT)” value under setting [1] is recorded as “B (B denotes 20-fold≥value>5-fold)”.
Take `Cc1cc([C@@H](C)Nc2ccccc2C(=O)O)c2nc([C@@H]3CCOC3)cc(=O)n2c1` [Compound 538]: the IC50 was > 2000 nM. In addition, the “T47D pAKT S473 HTRF IC50 (H1047R): T47D (H1047R) selectivity over SKBR3 (WT)” value under setting [1] is on record as “C (C denotes ≤5-fold)”.
For `Cc1cc([C@H](C)Nc2ccccc2C(=O)O)c2nc([C@H]3CCOC3)cc(=O)n2c1` [Compound 539] the same measures were 500 to 2000 nM and “B (B denotes 20-fold≥value>5-fold)”.
For `Cc1cc([C@@H](C)Nc2ccccc2C(=O)O)c2nc(-c3ccc4[nH]c(=O)oc4c3)cc(=O)n2c1` [Compound 541], in that order: 100 to 500 nM and “A (A denotes >20-fold)”.
For `Cc1cc([C@H](C)Nc2ccccc2C(=O)O)c2nc(-c3ccc4[nH]c(=O)oc4c3)cc(=O)n2c1` [Compound 542] the same measures were > 2000 nM and “C (C denotes ≤5-fold)”.
For the compound `Cc1cc(C(C)Nc2ccccc2C(=O)O)c2nc(C3CCC(NS(C)(=O)=O)CC3)c(C)c(=O)n2c1` (stereo not shown) [Compound 543], the IC50 is > 2000 nM. Also, the “T47D pAKT S473 HTRF IC50 (H1047R): T47D (H1047R) selectivity over SKBR3 (WT)” value under setting [1] is recorded as “C (C denotes ≤5-fold)”.
For `Cc1cc(C(C)Nc2ccccc2C(=O)O)c2nc(C3CCC(NS(C)(=O)=O)CC3)c(C)c(=O)n2c1` (stereo not shown) [Compound 544] the same measures were > 2000 nM and “C (C denotes ≤5-fold)”.
For `Cc1cc([C@@H](C)Nc2ccccc2C(=O)O)c2nc(Nc3ccc4[nH]c(=O)oc4c3)cc(=O)n2c1` [Compound 546], in that order: > 2000 nM and “C (C denotes ≤5-fold)”.
For `Cc1cc([C@H](C)Nc2ccccc2C(=O)O)c2nc(Nc3ccc4[nH]c(=O)oc4c3)cc(=O)n2c1` [Compound 547], in that order: > 2000 nM and “C (C denotes ≤5-fold)”.
For the compound `Cc1cc(C(C)Nc2ccccc2C(=O)O)c2nc(Nc3ccc4[nH]c(=O)oc4c3)cc(=O)n2c1` (stereo not shown) [Compound 548], the IC50 is > 2000 nM. In addition, the “T47D pAKT S473 HTRF IC50 (H1047R): T47D (H1047R) selectivity over SKBR3 (WT)” value under setting [1] is listed as “C (C denotes ≤5-fold)”.
As to `Cc1cc(C(C)Nc2ccccc2C(=O)O)c2nc(N3CCN(CCC(N)=O)CC3)cc(=O)n2c1` (stereo not shown) [Compound 550], the IC50 is > 2000 nM. Also, the “T47D pAKT S473 HTRF IC50 (H1047R): T47D (H1047R) selectivity over SKBR3 (WT)” value under setting [1] is given as “C (C denotes ≤5-fold)”.
For `Cc1cc(C(C)Nc2ccccc2C(=O)O)c2nc(N3CCN(CCC(N)=O)CC3)cc(=O)n2c1` (stereo not shown) [Compound 551] the same measures were > 2000 nM and “C (C denotes ≤5-fold)”.
In the case of `C=C(C)C1CCCC(c2cc(=O)n3cc(C)cc([C@@H](C)Nc4ccccc4C(=O)O)c3n2)CC1` (stereo partly shown) [Compound 552], the “T47D pAKT S473 HTRF IC50 (H1047R): T47D (H1047R) selectivity over SKBR3 (WT)” value under setting [1] is listed as “C (C denotes ≤5-fold)”.
`Cc1cc(C(C)Nc2ccccc2C(=O)O)c2nc(N3CCN(C(C)(C)C(N)=O)CC3)cc(=O)n2c1` (stereo not shown) [Compound 554]: the IC50 is > 2000 nM. The “T47D pAKT S473 HTRF IC50 (H1047R): T47D (H1047R) selectivity over SKBR3 (WT)” value under setting [1] is listed as “C (C denotes ≤5-fold)”.
For `Cc1cc([C@@H](C)Oc2ccccc2C(N)=O)c2nc(N3CCOCC3)cc(=O)n2c1` [Compound 562] the same measures were > 2000 nM and “C (C denotes ≤5-fold)”.
For `Cc1cc([C@@H](C)Nc2cccc3[nH]c(=O)oc23)c2nc(N3CCOCC3)cc(=O)n2c1` [Compound 565] the same measures were > 2000 nM and “C (C denotes ≤5-fold)”.
For `Cc1cc([C@H](C)Nc2cccc3[nH]c(=O)oc23)c2nc(N3CCOCC3)cc(=O)n2c1` [Compound 566], in that order: > 2000 nM and “C (C denotes ≤5-fold)”.
The compound `Cc1cc(C(C)Nc2ccccc2S(N)(=O)=O)c2nc(-c3cc(C)c4oc(=O)[nH]c4c3)cc(=O)n2c1` (stereo not shown) [Compound 570] displayed an IC50 of 100 to 500 nM. Besides, under setting [1], the “T47D pAKT S473 HTRF IC50 (H1047R): T47D (H1047R) selectivity over SKBR3 (WT)” value was “A (A denotes >20-fold)”.
Consider `Cc1cc(C(C)Nc2ccccc2S(N)(=O)=O)c2nc(-c3cc(C)c4oc(=O)[nH]c4c3)cc(=O)n2c1` (stereo not shown) [Compound 571], for which the IC50 was > 2000 nM. Besides, the “T47D pAKT S473 HTRF IC50 (H1047R): T47D (H1047R) selectivity over SKBR3 (WT)” value under setting [1] was “C (C denotes ≤5-fold)”.
As for `Cc1cc([C@H](C)Nc2ccccc2C(=O)O)c2nc(Nc3ccc4[nH]c(=O)[nH]c4c3)cc(=O)n2c1` [Compound 574], the IC50 was > 2000 nM. Under setting [1], the “T47D pAKT S473 HTRF IC50 (H1047R): T47D (H1047R) selectivity over SKBR3 (WT)” value was “C (C denotes ≤5-fold)”.
Take `Cc1cc([C@@H](C)Nc2ccccc2C(=O)O)c2nc(-c3ccc4c(c3)NC(=O)C4)cc(=O)n2c1` [Compound 575]: the IC50 was 100 to 500 nM. The “T47D pAKT S473 HTRF IC50 (H1047R): T47D (H1047R) selectivity over SKBR3 (WT)” value under setting [1] is on record as “A (A denotes >20-fold)”.
For `Cc1cc([C@H](C)Nc2ccccc2C(=O)O)c2nc(-c3ccc4c(c3)NC(=O)C4)cc(=O)n2c1` [Compound 576], in that order: > 2000 nM and “C (C denotes ≤5-fold)”.
For `CNC1=NC2C=C(c3cc(=O)n4cc(C)cc(C(C)Nc5ccccc5C(=O)O)c4n3)C=CC2=C1` (stereo not shown) [Compound 577], in that order: 100 to 500 nM and “A (A denotes >20-fold)”.
As to `CC(=O)N[C@H]1CCCC(c2cc(=O)n3cc(C)cc(C(C)Nc4ccccc4C(=O)O)c3n2)C1` (stereo partly shown) [Compound 580], the “T47D pAKT S473 HTRF IC50 (H1047R): T47D (H1047R) selectivity over SKBR3 (WT)” value under setting [1] is “C (C denotes ≤5-fold)”.
Same read-out and setting: the entry for `Cc1cc(C(C)Nc2ccccc2C(=O)O)c2nc(N3CCN(C(C)(C)C(N)=O)CC3)cc(=O)n2c1` (stereo not shown) [Compound 581] is “C (C denotes ≤5-fold)”.
As for `Cc1cc(C(C)Nc2ccccc2S(N)(=O)=O)c2nc(-c3ccc(F)cc3)cc(=O)n2c1` (stereo not shown) [Compound 585], the IC50 is > 2000 nM. For the same compound, under setting [1], the “T47D pAKT S473 HTRF IC50 (H1047R): T47D (H1047R) selectivity over SKBR3 (WT)” value is on record as “C (C denotes ≤5-fold)”.
For `Cc1cc(C(C)Nc2ccccc2S(N)(=O)=O)c2nc(-c3ccc(F)cc3)cc(=O)n2c1` (stereo not shown) [Compound 586] the same measures were > 2000 nM and “C (C denotes ≤5-fold)”.
For `Cc1cc([C@H](C)Nc2ccccc2S(N)(=O)=O)c2nc(-c3ccc(F)cc3)cc(=O)n2c1` [Compound 587] the same measures were > 2000 nM and “C (C denotes ≤5-fold)”.
For `Cc1cc([C@H](C)Nc2cccc3c2CCC(=O)N3)c2nc(N3CCOCC3)cc(=O)n2c1` [Compound 604], in that order: > 2000 nM and “C (C denotes ≤5-fold)”.
In the case of `Cc1cc([C@@H](C)Nc2ccccc2S(N)(=O)=O)c2nc(N3Cc4ccccc4C3)cc(=O)n2c1` [Compound 605, (R)-2-((1-(2-(isoindolin-2-yl)-7-methyl-4-oxo-4H-pyrido[1,2-a]pyrimidin-9-yl)ethyl)amino)benzenesulfonamide], the IC50 is < 100 nM. The “T47D pAKT S473 HTRF IC50 (H1047R): T47D (H1047R) selectivity over SKBR3 (WT)” value under setting [1] was “A (A denotes >20-fold)”.
For `Cc1cc(C(C)Nc2ccccc2C(=O)O)c2nc(C3CCC(C)(C)CC3)cc(=O)n2c1` (stereo not shown) [Compound 622] the same measures were 100 to 500 nM and “A (A denotes >20-fold)”.
In the case of `Cc1cc([C@@H](C)Nc2ccccc2C(=O)O)c2nc(C3CCC(C)(C)CC3)cc(=O)n2c1` [Compound 623, (R)-2-((1-(2-(4,4-dimethylcyclohexyl)-7-methyl-4-oxo-4H-pyrido[1,2-a]pyrimidin-9-yl)ethyl)amino)benzoic acid], the IC50 was < 100 nM. Besides, under setting [1], the “T47D pAKT S473 HTRF IC50 (H1047R): T47D (H1047R) selectivity over SKBR3 (WT)” value is “A (A denotes >20-fold)”.
For `Cc1cc([C@H](C)Nc2ccccc2C(=O)O)c2nc(C3CCC(C)(C)CC3)cc(=O)n2c1` [Compound 624] the same measures were > 2000 nM and “C (C denotes ≤5-fold)”.
For `Cc1cc([C@@H](C)Nc2ccccc2C(=O)O)c2nc(-c3ccccc3)cc(=O)n2c1` [Compound 628] the same measures were > 2000 nM and “C (C denotes ≤5-fold)”.
For `Cc1cc([C@H](C)Nc2ccccc2C(=O)O)c2nc(-c3ccccc3)cc(=O)n2c1` [Compound 629], in that order: < 100 nM and “A (A denotes >20-fold)”.
For `Cc1cc(C(C)Nc2ccccc2)c2nc(N3Cc4ccccc4C3)cc(=O)n2c1` (stereo not shown) [Compound 647], the “T47D pAKT S473 HTRF IC50 (H1047R): T47D (H1047R) selectivity over SKBR3 (WT)” value (selectivity of T47D (H1047R) over SKBR3 (WT) pAKT IC50) was “C (C denotes ≤5-fold)”.
